Measured values from patent US10336696B2, “Bicarbazole compound, photo-curable composition, cured product thereof, curable composition for plastic lens, and plastic lens” (DIC Corporation, priority 2014, dated 2019).

Legend:
[1] = Refractive index of compounds (NMP solutions, extrapolated); type: physicochemical; settings: compound diluted with NMP, three concentrations, Abbe refractometer, 589 nm (D line)
Procedure: The refractive index of each of the compounds was determined as follows. A compound was diluted with N-methylpyrrolidone (NMP) to prepare three samples having different concentrations. Liquid refractive indices of the respective solutions were measured, and the measured data was extrapolated to calculate the refractive index.
Measuring device: Abbe refractometer NRA-2T, manufactured by Atago Co., Ltd.
Measurement wavelength: 589 nm (D line)

[2] = Solubility in o-phenylphenoxyethyl acrylate; type: physicochemical; set-up: key: A: Soluble; B: Insoluble; settings: for Solubility, 10 mass %: compound concentration 10% by mass; for Solubility, 50 mass %: compound concentration 50% by mass
Procedure: The solubility was evaluated on the basis of whether a compound was soluble or insoluble in o-phenylphenoxyethyl acrylate. The evaluation was performed at two levels at which the compound concentration was 10% by mass and 50% by mass.

Row | Liquid refractive index [1] | Solubility, 10 mass % [2] | Solubility, 50 mass % [2] | Structure (SMILES)
1 | 1.723 | A | B | C=CC(=O)n1c2ccccc2c2cc(-c3cccc4c5ccccc5n(C(=O)C=C)c34)ccc21 [Example 1, 9,9′-diacryloyl-1,3′-bicarbazole]
2 | 1.735 | A | A | C=Cn1c2ccccc2c2cc(-c3cccc4c5ccccc5n(C=C)c34)ccc21 [Example 2, 9,9′-divinyl-1,3′-bicarbazole]
3 | 1.674 | A | B | C=Cn1c2ccccc2c2ccccc21 [Comparative Example 1, 9-vinylcarbazole, reference compound]

Continued, compound first:

Row | Structure (SMILES) | Liquid refractive index [1] | Solubility, 10 mass % [2] | Solubility, 50 mass % [2]
4 | C=CC(=O)OCCn1c2ccccc2c2cc(-c3cccc4c5ccccc5n(CCOC(=O)C=C)c34)ccc21 [Example 3, 9,9′-bis(acryloyloxyethyl)-1,3′-bicarbazole] | 1.664 | A | A
5 | c1ccc2c(c1)[nH]c1ccc(-c3cccc4c3[nH]c3ccccc34)cc12 [Synthesis Example 1, 1,3′-bicarbazole] | 1.76 | A | B
6 | c1ccc2c(c1)[nH]c1ccc(-c3ccc4[nH]c5ccccc5c4c3)cc12 [Comparative Example 2, 3,3′-bicarbazole, reference compound] | 1.765 | B | B
